The results in this text go back to US11123337B2, “4-methylsulfonyl-substituted piperidine urea compounds” (MYOKARDIA, INC., priority 2015, dated 2021).

This assay deals with bovine cardiac myosin (Bos taurus, UniProt Q9BE39). Kind of assay: Myosin activation assay (PK/LDH-coupled ATPase, bovine cardiac myofibrils). Format: biochemical. As to conditions: AC20 = concentration at which total response is increased by twenty percent. Put shortly: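 Skinned bovine cardiac myofibrils (1 mg/mL) in PIPES/MgCl2 buffer pH 6.8 at free Ca2+ giving ~50% (pCa ~6) or <5% (pCa 10) activation, with 50 μM ATP and 3.3% DMSO. ATPase rate from NADH absorbance at 340 nm (PK/LDH coupling) over 15 min at ambient temperature. AC20/AC50 from a four-parameter fit of DMSO-normalised rates.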
Chain of bovine cardiac myosin (Q9BE39 whole entry): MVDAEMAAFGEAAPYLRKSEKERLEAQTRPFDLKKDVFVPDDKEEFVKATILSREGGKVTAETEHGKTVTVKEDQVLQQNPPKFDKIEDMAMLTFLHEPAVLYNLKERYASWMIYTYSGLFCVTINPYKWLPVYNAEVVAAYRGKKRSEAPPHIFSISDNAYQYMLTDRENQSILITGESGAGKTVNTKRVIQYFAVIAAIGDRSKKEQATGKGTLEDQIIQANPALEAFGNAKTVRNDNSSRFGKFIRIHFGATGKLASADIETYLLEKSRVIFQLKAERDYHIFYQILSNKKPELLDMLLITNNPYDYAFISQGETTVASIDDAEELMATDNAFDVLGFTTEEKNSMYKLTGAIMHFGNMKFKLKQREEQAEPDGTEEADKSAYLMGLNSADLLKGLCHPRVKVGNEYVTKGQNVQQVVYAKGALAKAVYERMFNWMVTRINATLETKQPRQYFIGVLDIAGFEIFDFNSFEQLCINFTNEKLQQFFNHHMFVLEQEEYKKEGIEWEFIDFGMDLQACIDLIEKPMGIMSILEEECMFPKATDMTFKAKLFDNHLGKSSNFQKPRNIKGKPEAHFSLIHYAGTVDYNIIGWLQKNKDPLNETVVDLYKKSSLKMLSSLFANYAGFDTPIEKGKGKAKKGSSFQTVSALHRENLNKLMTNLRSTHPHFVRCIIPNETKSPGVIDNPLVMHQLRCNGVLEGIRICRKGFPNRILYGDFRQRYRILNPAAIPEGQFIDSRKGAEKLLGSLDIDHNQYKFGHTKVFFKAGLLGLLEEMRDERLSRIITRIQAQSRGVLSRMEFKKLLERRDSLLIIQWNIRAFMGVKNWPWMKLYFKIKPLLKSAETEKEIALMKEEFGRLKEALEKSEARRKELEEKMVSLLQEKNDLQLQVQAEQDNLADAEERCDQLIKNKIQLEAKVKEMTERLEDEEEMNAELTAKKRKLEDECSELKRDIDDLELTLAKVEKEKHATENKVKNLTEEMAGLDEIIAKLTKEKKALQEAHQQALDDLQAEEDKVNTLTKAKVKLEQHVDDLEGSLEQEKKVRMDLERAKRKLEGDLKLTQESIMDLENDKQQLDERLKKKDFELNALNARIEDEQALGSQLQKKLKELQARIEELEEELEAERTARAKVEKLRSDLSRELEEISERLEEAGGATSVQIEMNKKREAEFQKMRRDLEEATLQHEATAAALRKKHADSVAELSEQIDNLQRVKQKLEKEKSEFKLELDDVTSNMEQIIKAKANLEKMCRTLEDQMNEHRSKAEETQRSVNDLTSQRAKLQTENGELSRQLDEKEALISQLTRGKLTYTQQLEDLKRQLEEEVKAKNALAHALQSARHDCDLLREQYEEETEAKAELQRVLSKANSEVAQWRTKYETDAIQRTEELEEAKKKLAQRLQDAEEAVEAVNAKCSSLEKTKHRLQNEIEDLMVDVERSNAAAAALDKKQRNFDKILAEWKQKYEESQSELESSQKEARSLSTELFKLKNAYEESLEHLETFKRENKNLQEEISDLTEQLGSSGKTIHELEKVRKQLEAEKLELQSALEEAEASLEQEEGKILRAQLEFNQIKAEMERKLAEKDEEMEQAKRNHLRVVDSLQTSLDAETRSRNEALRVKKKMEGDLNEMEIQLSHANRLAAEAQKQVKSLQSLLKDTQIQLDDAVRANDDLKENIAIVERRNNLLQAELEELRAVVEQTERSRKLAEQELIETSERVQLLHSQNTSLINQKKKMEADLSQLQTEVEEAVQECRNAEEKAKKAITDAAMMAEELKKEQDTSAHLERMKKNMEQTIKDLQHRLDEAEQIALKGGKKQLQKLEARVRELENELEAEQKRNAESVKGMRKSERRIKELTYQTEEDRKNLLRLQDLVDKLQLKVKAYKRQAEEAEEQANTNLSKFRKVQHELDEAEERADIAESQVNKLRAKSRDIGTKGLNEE
Chain of bovine cardiac myosin (P85100 whole entry partner): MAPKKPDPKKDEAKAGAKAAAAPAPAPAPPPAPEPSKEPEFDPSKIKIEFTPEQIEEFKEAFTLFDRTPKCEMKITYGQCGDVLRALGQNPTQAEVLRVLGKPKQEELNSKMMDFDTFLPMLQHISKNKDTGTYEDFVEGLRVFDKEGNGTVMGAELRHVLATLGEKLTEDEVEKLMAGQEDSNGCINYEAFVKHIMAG
Chain of bovine cardiac myosin (Q3SZE5 whole entry partner): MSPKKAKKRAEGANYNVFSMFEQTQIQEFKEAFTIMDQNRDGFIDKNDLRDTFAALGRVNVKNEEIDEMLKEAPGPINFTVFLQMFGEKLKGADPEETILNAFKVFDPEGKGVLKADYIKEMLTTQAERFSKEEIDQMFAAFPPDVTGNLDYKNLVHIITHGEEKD
As for `O=C(Nc1ccnnc1)N1CCC(C(F)(F)S(=O)(=O)c2ccc(OC(F)(F)F)cc2)CC1` [Compound 48, 4-(difluoro((4-(trifluoromethoxy)phenyl)sulfonyl)methyl)-N-(pyridazin-4-yl)piperidine-1-carboxamide], the “Myosin Activation (AC20)” value is on record as “++ (++ represents myosin activation value AC20 from 2 μM-5 μM)”.
To `Cc1cc(NC(=O)N2CCC(C(C)(F)S(=O)(=O)c3cccc(F)c3)CC2)cnn1` (stereo not drawn) [Compound 12, 4-(1-Fluoro-1-((3-fluorophenyl)sulfonyl)ethyl)-N-(6-methylpyridazin-4-yl)piperidine-1-carboxamide] belongs “+ (+ represents myosin activation value AC20 > 5 μM)”; to `C[C@@](F)(C1CCN(C(=O)Nc2ccon2)CC1)S(=O)(=O)c1ccc(OC(F)F)nc1` [Compound 311, (S)-4-(1-((6-(difluoromethoxy)pyridin-3-yl)sulfonyl)-1-fluoroethyl)-N-(isoxazol-3-yl)piperidine-1-carboxamide], “+ (+ represents myosin activation value AC20 > 5 μM)”.
Regarding `O=C(Nc1ccnnc1)N1CCC(C2(S(=O)(=O)c3cccc(F)c3)CC(F)(F)C2)CC1` [Compound 28, 4-(3,3-Difluoro-1-((3-fluorophenyl)sulfonyl)cyclobutyl)-N-(pyridazin-4-yl)piperidine-1-carboxamide], the “Myosin Activation (AC20)” value was “++ (++ represents myosin activation value AC20 from 2 μM-5 μM)”.
The same measure for `CC(C)(C1CCN(C(=O)Nc2ccon2)CC1)S(=O)(=O)c1ccc(C(F)(F)F)nc1` [Compound 113, N-(isoxazol-3-yl)-4-(2-((6-(trifluoromethyl)pyridin-3-yl)sulfonyl)propan-2-yl)piperidine-1-carboxamide]: “+ (+ represents myosin activation value AC20 > 5 μM)”; for `Cn1cc(S(=O)(=O)[C@@](C)(F)C2CCN(C(=O)Nc3ccnc(F)c3)CC2)c(C(F)F)n1` [Compound 297, (R)-4-(1-((3-(difluoromethyl)-1-methyl-1H-pyrazol-4-yl)sulfonyl)-1-fluoroethyl)-N-(2-fluoropyridin-4-yl)piperidine-1-carboxamide]: “+++ (+++ represents myosin activation value AC20 < 2 μM)”; for `Cn1nc(Cl)cc1S(=O)(=O)C(C)(C)C1CCN(C(=O)Nc2ccnc(F)c2)CC1` [Compound 115, 4-(2-((3-chloro-1-methyl-1H-pyrazol-5-yl)sulfonyl)propan-2-yl)-N-(2-fluoropyridin-4-yl)piperidine-1-carboxamide]: “++ (++ represents myosin activation value AC20 from 2 μM-5 μM)”.
To `C[C@H](O)c1cc(NC(=O)N2CCC([C@](C)(F)S(=O)(=O)c3cccc(F)c3)CC2)ccn1` [Compound 302, 4-((R)-1-fluoro-1-((3-fluorophenyl)sulfonyl)ethyl)-N-(2-((S)-1-hydroxyethyl)pyridin-4-yl)piperidine-1-carboxamide] belongs “+ (+ represents myosin activation value AC20 > 5 μM)”; to `CC(C)(C1CCN(C(=O)Nc2ccon2)CC1)S(=O)(=O)c1ccc(C#N)cc1` [Compound 102, 4-(2-((4-cyanophenyl)sulfonyl)propan-2-yl)-N-(isoxazol-3-yl)piperidine-1-carboxamide], “+ (+ represents myosin activation value AC20 > 5 μM)”.
With `C[C@@](F)(C1CCN(C(=O)Nc2ccon2)CC1)S(=O)(=O)c1ccc(C(F)(F)F)nc1` [Compound 309, (S)-4-(1-fluoro-1-((6-(trifluoromethyl)pyridin-3-yl)sulfonyl)ethyl)-N-(isoxazol-3-yl)piperidine-1-carboxamide], the “Myosin Activation (AC20)” value is “+ (+ represents myosin activation value AC20 > 5 μM)”.
To `C[C@H](O)c1cc(NC(=O)N2CCC([C@@](C)(F)S(=O)(=O)c3cn(C)nc3C(F)F)CC2)ccn1` [Compound 29, 4-((S)-1-((3-(Difluoromethyl)-1-methyl-1H-pyrazol-4-yl)sulfonyl)-1-fluoroethyl)-N-(2-((S)-1-hydroxyethyl)pyridin-4-yl)piperidine-1-carboxamide] belongs “+ (+ represents myosin activation value AC20 > 5 μM)”; to `Cc1ccc(NC(=O)N2CCC(C(C)(F)S(=O)(=O)c3ccnn3C)CC2)cn1` (stereo not drawn) [Compound 225, 4-(1-fluoro-1-((1-methyl-1H-pyrazol-5-yl)sulfonyl)ethyl)-N-(6-methylpyridin-3-yl)piperidine-1-carboxamide], “++ (++ represents myosin activation value AC20 from 2 μM-5 μM)”.
To `Cc1ccc(F)cc1S(=O)(=O)C(F)(F)C1CCN(C(=O)Nc2ccnnc2)CC1` [Compound 63, 4-(difluoro((5-fluoro-2-methylphenyl)sulfonyl)methyl)-N-(pyridazin-4-yl)piperidine-1-carboxamide] belongs “++ (++ represents myosin activation value AC20 from 2 μM-5 μM)”; to `Cn1nc(C(F)(F)F)cc1S(=O)(=O)[C@@](C)(F)C1CCN(C(=O)Nc2ccnc(F)c2)CC1` [Compound 296, (R)-4-(1-fluoro-1-((1-methyl-3-(trifluoromethyl)-1H-pyrazol-5-yl)sulfonyl)ethyl)-N-(2-fluoropyridin-4-yl)piperidine-1-carboxamide], “+++ (+++ represents myosin activation value AC20 < 2 μM)”; to `Cn1cc(S(=O)(=O)[C@@](C)(F)C2CCN(C(=O)Nc3ccc(F)nc3)CC2)c(C(F)F)n1` [Compound 259, (R)-4-(1-((3-(difluoromethyl)-1-methyl-1H-pyrazol-4-yl)sulfonyl)-1-fluoroethyl)-N-(6-fluoropyridin-3-yl)piperidine-1-carboxamide], “+++ (+++ represents myosin activation value AC20 < 2 μM)”.
To `Cn1cnc(S(=O)(=O)C(C)(F)C2CCN(C(=O)Nc3ccnnc3)CC2)c1` (stereo not drawn) [Compound 272, 4-(1-fluoro-1-((1-methyl-1H-imidazol-4-yl)sulfonyl)ethyl)-N-(pyridazin-4-yl)piperidine-1-carboxamide] belongs “+ (+ represents myosin activation value AC20 > 5 μM)”; to `O=C(Nc1ccnnc1)N1CCC(C(F)(F)S(=O)(=O)c2ccc(N3CCC3)nc2)CC1` [Compound 67, 4-(((6-(azetidin-1-yl)pyridin-3-yl)sulfonyl)difluoromethyl)-N-(pyridazin-4-yl)piperidine-1-carboxamide], “++ (++ represents myosin activation value AC20 from 2 μM-5 μM)”.
Turning to `Cn1nc(C(F)(F)F)cc1S(=O)(=O)C(C)(C)C1CCN(C(=O)Nc2ccnc(F)c2)CC1` [Compound 127, N-(2-fluoropyridin-4-yl)-4-(2-((1-methyl-3-(trifluoromethyl)-1H-pyrazol-5-yl)sulfonyl)propan-2-yl)piperidine-1-carboxamide], the “Myosin Activation (AC20)” value is “++ (++ represents myosin activation value AC20 from 2 μM-5 μM)”.
To `CC(F)(C1CCN(C(=O)Nc2cnoc2)CC1)S(=O)(=O)c1cccc(F)c1` (stereo not drawn) [Compound 235, 4-(1-fluoro-1-((3-fluorophenyl)sulfonyl)ethyl)-N-(isoxazol-4-yl)piperidine-1-carboxamide] belongs “+++ (+++ represents myosin activation value AC20 < 2 μM)”.
As to `CC(C)(C1CCN(C(=O)Nc2nnco2)CC1)S(=O)(=O)c1cccc(F)c1` [Compound 153, 4-(2-((3-fluorophenyl)sulfonyl)propan-2-yl)-N-(1,3,4-oxadiazol-2-yl)piperidine-1-carboxamide], the “Myosin Activation (AC20)” value was “+ (+ represents myosin activation value AC20 > 5 μM)”.
As for `CC(F)(C1CCN(C(=O)Nc2ccnnc2)CC1)S(=O)(=O)c1ccccc1C(F)(F)F` (stereo not drawn) [Compound 57, 4-(1-fluoro-1-((2-(trifluoromethyl)phenyl)sulfonyl)ethyl)-N-(pyridazin-4-yl)piperidine-1-carboxamide], the “Myosin Activation (AC20)” value is reported as “++ (++ represents myosin activation value AC20 from 2 μM-5 μM)”.
For `C[C@@](F)(C1CCN(C(=O)Nc2ccnnc2)CC1)S(=O)(=O)c1cccc(F)c1` [Compound 279, (S)-4-(1-fluoro-1-((3-fluorophenyl)sulfonyl)ethyl)-N-(pyridazin-4-yl)piperidine-1-carboxamide], the “Myosin Activation (AC20)” value is recorded as “+ (+ represents myosin activation value AC20 > 5 μM)”.
As to `Cn1nc(Cl)cc1S(=O)(=O)C(C)(C)C1CCN(C(=O)Nc2ccnnc2)CC1` [Compound 140, 4-(2-((3-chloro-1-methyl-1H-pyrazol-5-yl)sulfonyl)propan-2-yl)-N-(pyridazin-4-yl)piperidine-1-carboxamide], the “Myosin Activation (AC20)” value is on record as “+++ (+++ represents myosin activation value AC20 < 2 μM)”.
The same measure for `Cn1cc(S(=O)(=O)C(C)(F)C2CCN(C(=O)Nc3ccnc(F)c3)CC2)c(C(F)(F)F)n1` (stereo not drawn) [Compound 245, 4-(1-fluoro-1-((1-methyl-3-(trifluoromethyl)-1H-pyrazol-4-yl)sulfonyl)ethyl)-N-(2-fluoropyridin-4-yl)piperidine-1-carboxamide]: “++ (++ represents myosin activation value AC20 from 2 μM-5 μM)”; for `Cc1ncc(NC(=O)N2CCC(C(C)(C)S(=O)(=O)c3cn(C)nc3C(F)F)CC2)cn1` [Compound 143, 4-(2-((3-(difluoromethyl)-1-methyl-1H-pyrazol-4-yl)sulfonyl)propan-2-yl)-N-(2-methylpyrimidin-5-yl)piperidine-1-carboxamide]: “+ (+ represents myosin activation value AC20 > 5 μM)”; for `COc1ccc(S(=O)(=O)[C@@](C)(F)C2CCN(C(=O)Nc3ccon3)CC2)cn1` [Compound 308, (R)-4-(1-fluoro-1-((6-methoxypyridin-3-yl)sulfonyl)ethyl)-N-(isoxazol-3-yl)piperidine-1-carboxamide]: “++ (++ represents myosin activation value AC20 from 2 μM-5 μM)”.
The same measure for `C[C@H](O)c1cc(NC(=O)N2CCC(C(F)(F)S(=O)(=O)c3cn(C)nc3C(F)F)CC2)ccn1` [Compound 99, (S)-4-(((3-(difluoromethyl)-1-methyl-1H-pyrazol-4-yl)sulfonyl)difluoromethyl)-N-(2-(1-hydroxyethyl)pyridin-4-yl)piperidine-1-carboxamide]: “+ (+ represents myosin activation value AC20 > 5 μM)”.
